Source: paper PMC13339814 (Microbiology Spectrum, 2026)
“Also recorded” adds a separate entry of the source. Where no end group is shown, it is not given here. The star is where a group is joined. pNA = O=[N+]([O-])c1ccc(N*)cc1; Cbz = O=C(OCc1ccccc1)*

Assays:
PSP692 [1] = assay: purified PSP692 (1 µM) in 1× phosphate-buffered saline (PBS) at pH 6.0; conditions: Segatella copri, 37°C
PSP464 [2] = assay: purified PSP464 (1 µM) in 100 mM glycine-HCl buffer at pH 4.0; conditions: Stenotrophomonas maltophilia, 37°C
PSP464 [3] = assay: HRMS analysis of 11-mer gliadin peptide degradation by PSP464; format: in vitro ADME, Stenotrophomonas maltophilia
Experimental: Gliadin degradation reactions were performed in duplicate for PSP464 activity on the 11-mer and PSP692 activity on the 33-mer at time points of 30 min, 1 h, 2 h, and 4 h. Following incubation, duplicate reactions were pooled prior to downstream processing to minimize technical variability. Reactions were quenched by the addition of trifluoroacetic acid (TFA) in water to a final concentration of 0.1% (vol/vol). To remove intact enzyme and retain low-molecular-weight degradation products, samples were centrifuged through Microcon centrifugal filter units with a 10 kDa MWCO at room temperature for 30 min. The filtrate, containing peptides <10 kDa, was collected and subjected to C18 ZipTip protocol for desalting prior to LC-MS/MS analysis. The elution solvent for desalting was 50% acetonitrile with 0.1% formic acid in water.
Samples were analysed on a Bruker IMPACT HD mass spectrometer in HRMS mode. MS scans were acquired over an m/z range of 50–3,500 at high resolution in positive ion mode. Raw data were processed in MZMine v3.9 ([38]), and the fragment list was exported as an Excel list followed by manual annotation. Chromatograms were generated for identified gliadin-derived peptides across the time course.

[4] = tested on: human gastrointestinal proteases; assay: human gastrointestinal proteases; conditions: cited from earlier work
PSP692 [5] = assay: purified recombinant PSP692 in pH 6 PBS buffer; conditions: Segatella copri, 37°C, up to 4 h

Cbz-Gly-Pro-pNA
cleaved bond (PSP692 [1]): Pro-pNA

Cbz-Pro-Pro-Phe-pNA
cleaved bond (PSP464 [2]): Phe-pNA

GPQQSFPEQEA [11-mer]
intensity of parent peak (m/z ~1,218, +1) after incubation with PSP464 (PSP464 [3]; all digestion time points, 30 min to 4 h, pooled duplicates): reduced | peptide fragments formed from 11-mer by PSP464 (m/z 998 and 872) (PSP464 [3]; sequential C-terminal cleavage, sequences assigned from m/z): GPQQSFPEQ and GPQQSFPE

LQLQPFPQPQLPYPQPQLPYPQPQLPYPQPQPF
not cleaved [4]: evades degradation by human gastrointestinal proteases | fragment found (PSP692 [5]): LQLQP, major, 30 min; also recorded: QPFPQ; also recorded: QLQPFP, major, 30 min
